# Test results reported in patent US20240156800A1, “EP300 DEGRADER AND USES THEREOF IN NEUROBLASTOMA” (DANA-FARBER CANCER INSTITUTE, INC., priority 2021, published 2024).
# “Also recorded” adds a separate entry of the source.
# Experiments:
# [1] = biological target: T1, EP300, CRBN and CBP in Kelly cell lysates (Homo sapiens, UniProt Q09472+Q96SW2); test: Biotin-JQAD1 pulldown from Kelly cell lysates (streptavidin purification, western blotting); type: binding; conditions: Kelly cell lysates co-treated with excess pomalidomide
# T1 construct: added to 500 μg of whole Kelly cell lysate; endogenous in cells; host or cells: Kelly neuroblastoma cells (whole cell lysate)
# Procedure: Biotin-JQAD1, synthesized below, was added to 500 μg of whole Kelly cell lysate prepared in immunoprecipitation (IP) lysis buffer (Pierce™ Biotechnology), and incubated for 16 h at 4° C. with end-over-end mixing. One hundred μL of high-capacity streptavidin agarose resin (Pierce™ Biotechnology) was packed into a 1.5 mL Eppendorf tube®, washed three times with cold PBS, prior to addition of cell lysate. Lysate was incubated at room temperature for 10 minutes prior to centrifugation and washing, followed by elution in NuPAGE™ LDS sample buffer with reducing agent (Thermo-Fisher Scientific). Samples were processed by sodium dodecyl sulphate-polyacrylamide gel electrophoresis (SDS-PAGE) as above and blotted using anti-EP300, anti-CRBN, or anti-CBP antibodies.
# [2] = biological target: T2, CBP (Homo sapiens, UniProt Q92793); test: SILAC mass spectrometry of the nuclear proteome of Kelly cells (CBP); type: cell-based; conditions: 500 nM, 24 h, nuclear extract
# T2 construct: Cells growing in culture were lysed for whole cell lysates; endogenous in cells; host or cells: Kelly, NGP, SIMA, BE2C neuroblastoma cells; Kelly xenografts in NSG mice
# T2 sequence (Q92793 whole entry): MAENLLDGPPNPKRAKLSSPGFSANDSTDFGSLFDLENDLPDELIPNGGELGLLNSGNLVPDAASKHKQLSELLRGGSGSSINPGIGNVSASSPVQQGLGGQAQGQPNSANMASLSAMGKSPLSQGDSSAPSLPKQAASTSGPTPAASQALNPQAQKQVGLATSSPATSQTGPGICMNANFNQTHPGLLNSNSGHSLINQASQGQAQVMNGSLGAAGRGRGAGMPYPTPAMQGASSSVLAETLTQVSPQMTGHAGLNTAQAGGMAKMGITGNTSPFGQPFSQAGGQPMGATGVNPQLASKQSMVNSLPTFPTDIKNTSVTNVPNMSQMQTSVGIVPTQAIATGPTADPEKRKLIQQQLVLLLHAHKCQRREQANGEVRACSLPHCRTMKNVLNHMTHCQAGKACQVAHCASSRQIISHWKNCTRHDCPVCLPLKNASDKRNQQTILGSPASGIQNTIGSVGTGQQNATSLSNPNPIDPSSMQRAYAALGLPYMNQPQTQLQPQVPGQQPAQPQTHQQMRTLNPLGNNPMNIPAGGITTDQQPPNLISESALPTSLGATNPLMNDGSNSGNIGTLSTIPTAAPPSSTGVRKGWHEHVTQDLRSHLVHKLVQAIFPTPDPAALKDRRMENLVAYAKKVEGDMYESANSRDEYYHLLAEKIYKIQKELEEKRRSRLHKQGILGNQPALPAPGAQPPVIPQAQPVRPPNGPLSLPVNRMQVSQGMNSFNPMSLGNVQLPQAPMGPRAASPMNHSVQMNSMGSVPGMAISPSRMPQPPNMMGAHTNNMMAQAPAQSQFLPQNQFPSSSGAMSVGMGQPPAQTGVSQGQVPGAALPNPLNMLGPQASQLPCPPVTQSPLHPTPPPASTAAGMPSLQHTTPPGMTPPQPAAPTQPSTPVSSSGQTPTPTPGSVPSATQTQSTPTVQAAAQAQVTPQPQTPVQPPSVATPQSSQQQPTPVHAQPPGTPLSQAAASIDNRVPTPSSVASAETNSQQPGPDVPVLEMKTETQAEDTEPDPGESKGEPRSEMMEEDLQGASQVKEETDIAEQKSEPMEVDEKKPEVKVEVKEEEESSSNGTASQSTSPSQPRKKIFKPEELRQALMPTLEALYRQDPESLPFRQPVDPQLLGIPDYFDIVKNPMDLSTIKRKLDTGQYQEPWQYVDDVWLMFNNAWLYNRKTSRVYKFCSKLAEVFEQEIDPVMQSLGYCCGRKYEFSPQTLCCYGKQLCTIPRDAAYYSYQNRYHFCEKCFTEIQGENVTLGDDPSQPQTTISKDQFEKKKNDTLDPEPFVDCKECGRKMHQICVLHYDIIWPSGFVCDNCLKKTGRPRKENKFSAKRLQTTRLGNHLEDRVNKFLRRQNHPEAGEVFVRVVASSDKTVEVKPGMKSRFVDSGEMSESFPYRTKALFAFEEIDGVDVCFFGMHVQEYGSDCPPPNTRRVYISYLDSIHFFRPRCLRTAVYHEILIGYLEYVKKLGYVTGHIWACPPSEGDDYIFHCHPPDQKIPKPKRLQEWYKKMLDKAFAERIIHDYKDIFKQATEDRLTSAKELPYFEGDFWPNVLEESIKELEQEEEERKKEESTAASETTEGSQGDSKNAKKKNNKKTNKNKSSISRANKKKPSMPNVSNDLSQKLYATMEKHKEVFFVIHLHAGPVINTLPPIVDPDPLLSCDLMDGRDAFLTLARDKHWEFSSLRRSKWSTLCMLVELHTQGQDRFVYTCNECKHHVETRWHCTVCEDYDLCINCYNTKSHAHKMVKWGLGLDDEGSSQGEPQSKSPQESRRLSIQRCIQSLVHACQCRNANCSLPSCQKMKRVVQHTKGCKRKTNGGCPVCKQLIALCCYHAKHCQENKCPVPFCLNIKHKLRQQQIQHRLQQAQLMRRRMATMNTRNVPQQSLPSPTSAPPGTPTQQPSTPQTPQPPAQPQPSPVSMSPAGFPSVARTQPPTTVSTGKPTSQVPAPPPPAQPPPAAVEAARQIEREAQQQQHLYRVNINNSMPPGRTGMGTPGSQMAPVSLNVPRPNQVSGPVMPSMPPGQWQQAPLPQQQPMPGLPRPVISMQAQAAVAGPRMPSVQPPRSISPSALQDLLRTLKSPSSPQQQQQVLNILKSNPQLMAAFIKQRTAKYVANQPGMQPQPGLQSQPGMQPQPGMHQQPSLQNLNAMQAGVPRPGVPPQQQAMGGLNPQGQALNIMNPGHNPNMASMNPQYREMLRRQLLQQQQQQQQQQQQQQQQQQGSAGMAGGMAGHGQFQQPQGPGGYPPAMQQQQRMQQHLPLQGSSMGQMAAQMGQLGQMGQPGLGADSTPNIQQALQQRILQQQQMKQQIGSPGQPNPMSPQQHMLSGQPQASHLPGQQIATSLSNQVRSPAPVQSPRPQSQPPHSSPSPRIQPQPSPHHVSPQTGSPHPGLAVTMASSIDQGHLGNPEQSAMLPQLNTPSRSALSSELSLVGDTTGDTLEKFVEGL
# Procedure: Because JQAD1 interacted preferentially with both EP300 and CRBN, whether JQAD1 preferentially induces degradation of EP300 compared to CBP in MYCN-amplified neuroblastoma cells was examined. […] To further examine the specificity of JQAD1 for EP300, an analysis of the effects of JQAD1 in stable isotope labeling by amino acids in cell culture (SILAC)-labelled Kelly cells was performed (FIG. 3F). Kelly cells were cultured with SILAC media containing heavy or light-labelled arginine and lysine. Heavy labelled cells were treated with 500 nM JQAD1, and light-labelled cells treated with dimethyl sulfoxide (DMSO) for 24 h, prior to nuclear extraction and protein lysis. […] Protein abundance was then analyzed by mass spectrometry, to determine global changes in the nuclear proteome. […] To expand upon these findings, three NB cell lines, Kelly, NGP and SIMA, which have high levels of CRBN (e.g., protein or mRNA) (FIG. 8C), were treated with JQAD, and the effects on specific proteins were measured by western blotting. […] Peptides were detected, isolated, and fragmented to produce a tandem mass spectrum of specific fragment ions for each peptide. Peptide sequences and protein identity were determined by matching protein databases with the acquired fragmentation pattern by Sequest® (Thermo Fisher Scientific) (Eng et al. J. Am. Soc. Mass Spectrom. 5:976-89 (1994)). […]
# [3] = Toxicity study in Balb/c Crbn ILE391VAL humanized knockin mice; type: in vivo
# Procedure: For toxicity studies, four female CD1 mice (Charles River Laboratories) were injected intraperitoneally (IP) with single doses of 10 mg/Kg (R,S)-JQAD1 solubilized in 10% hydroxypropyl β-cyclodextrin (Sigma-Aldrich®) in sterile water. Following injection, blood concentration of (R,S)-JQAD1 was measured by serial measurements of animal serum at time points out to 24 h, by liquid chromatography with tandem mass spectrometry (LC-MS/MS) analysis. Pharmacokinetics were performed at ChemPartner in Shanghai, China, using LC-MS/MS method and pharmacokinetics parameters (Tmax, Cmax, T1/2, AUC, etc.) calculated with WinNonlin® V 6.2 statistics software (Pharsight Corporation) using a noncompartmental model. For maximally tolerated dose (MTD) testing, six female CD1 mice were treated with daily IP doses of (R,S)-JQAD1 at 10, 20, or 40 mg/kg. Animals were monitored for animal weight, grooming and behavior daily without noted effects. […] Animal weights, behavior and grooming were monitored daily, for a total of 21 days. At day 14, three mice per treatment group were sacrificed and tissues fixed for immunohistochemistry. Blood samples were obtained by retro-orbital puncture and blood analyzed at the Small Animal Imaging Facility at Beth Israel Deaconess Medical Center (Boston, MA), on a Hemavet® 9500FS (Drew Scientific) for blood counts, creatinine, AST, ALT, ALP, GGTP, and BUN measurements.
# [4] = 40 mg/Kg IP daily, after 14 days, p NS versus vehicle
compound,measurement,setting,value
"C[C@H](N(Cc1ccc(F)cc1)C(=O)CN1C(=O)O[C@@]2(CCc3cc(NC(=O)CCCCCCCCCCCNc4ccc5c(c4)C(=O)N(C4CCC(=O)NC4=O)C5=O)ccc32)C1=O)C(F)(F)F (stereo partly drawn) [JQAD1, 12-((2-(2,6-dioxopiperidin-3-yl)-1,3-dioxoisoindolin-5-yl)amino)-N-((R)-3′-(2-((4-fluorobenzyl)((S)-1,1,1-trifluoropropan-2-yl)amino)-2-oxoethyl)-2′,4′-dioxo-2,3-dihydrospiro[indene-1,5′-oxazolidin]-5-yl)dodecanamide]",effect of excess pomalidomide on the interaction,[1],"partial loss of the interaction between JQAD1, CRBN, and EP300"
same,CBP protein abundance,[2],remained detectable at similar levels as controls
same,tolerability,"[3]; 40 mg/Kg IP daily for 21 days, measurements after 14 days","well tolerated, with no effects on grooming, behavior, weight, peripheral blood counts, liver function tests or creatinine measurements"
same,tissue pathology (hematoxylin and eosin),"[3]; 40 mg/Kg IP daily, 14 days, blinded pathologist",no gross changes in tissue architecture or immune infiltrate; also recorded: no histologic or biochemical evidence of toxicity in the liver
same,ALP,[3]; [4],51
same,ALT,[3]; [4],54
same,AST,[3]; [4],37
same,Albumin,[3]; [4],3.2
same,Basophils,[3]; [4],0.02 K/μL
same,Creatinine,[3]; [4],0.17
same,Eosinophils,[3]; [4],0.10
same,GGTP,[3]; [4],5
same,Hematocrit,[3]; [4],41.2%
same,Hemoglobin,[3]; [4],13.35
same,Lymphocytes,[3]; [4],1.80
same,Monocytes,[3]; [4],0.35 K/μL
same,Neutrophils,[3]; [4],1.2
same,Platelet,[3]; [4],528 K/μL
same,WBC,[3]; [4],3.46 K/μL
same,"toxicity (blood counts, liver and kidney function tests, weight, grooming)",[3]; twice daily 40 mg/Kg IP for 14 days,no toxicity was observed
